According to patent publication US7179823B1, “5-membered n-heterocyclic compounds with hypoglycemic and hypolipidemic activity” (Takeda Pharmaceutical Company Limited, priority 1999, dated 2007):

Row | SMILES | melting point
1 | CCOc1nn(Cc2ccnc(OCc3nc(-c4ccccc4)oc3C)c2)cc1CCC(=O)O [Example 211, 3-[3-ethoxy-1-[2-(5-methyl-2-phenyl-4-oxazolylmethoxy)-4-pyridylmethyl]-1H-pyrazol-4-yl]propionic acid] | 114 to 115 °C
2 | O=C(O)c1cn(Cc2ccc(OCc3ccccc3)cc2)nc1-c1ccccc1 [Example 92, 1-(4-benzyloxybenzyl)-3-phenyl-1H-pyrazol-4-carboxylic acid] | 152 to 153 °C
3 | O=C(O)CCc1cn(Cc2ccc(OCc3ccccc3)cc2)cc1-c1ccccc1 [Example 10, 3-[1-(4-benzyloxybenzyl)-4-phenyl-3-pyrrolyl]propionic acid] | 130 to 131 °C
4 | Cc1oc(-c2ccccc2)nc1COc1ccc(CCn2cc(CCC(=O)O)c(-c3ccccc3)n2)cc1 [Example 116, 3-[1-[2-[4-(5-methyl-2-phenyl-4-oxazolylmethoxy)phenyl]ethyl]-3-phenyl-1H-pyrazol-4-yl]propionic acid] | 85 to 86 °C
5 | CCOc1nn(Cc2ccnc(OCc3nc(-c4ccco4)oc3C)c2)cc1CCC(=O)O [Example 234, 3-[3-ethoxy-1-[2-[2-(2-furyl)-5-methyl-4-oxazolylmethoxy]-4-pyridylmethyl]-1H-pyrazol-4-yl]propionic acid] | 138 to 139 °C
6 | Cc1oc(-c2ccccc2)nc1CCOc1ccc(Cn2cc(CCC(=O)O)c(-c3ccccc3)c2)cc1 [Example 14, 3-[1-[4-[2-(5-methyl-2-phenyl-4-oxazolyl)ethoxy]benzyl]-4-phenyl-3-pyrrolyl]propionic acid] | 147 to 148 °C
7 | COc1cc(COc2nn(Cc3ccc(Oc4ccccc4)cc3)cc2C(N)=O)ccc1OCc1nc(-c2ccco2)oc1C [Example 323, 3-[4-[2-(2-furyl)-5-methyl-4-oxazolylmethoxy]-3-methoxybenzyloxy]-1-(4-phenoxybenzyl)-1H-pyrazole-4-carbamide] | 105 to 106 °C
8 | CCCc1c(CCC(=O)O)cnn1Cc1ccc(OCc2nc(-c3ccccc3)oc2C)cc1 [Example 112, 3-[1-[4-(5-methyl-2-phenyl-4-oxazolylmethoxy)benzyl]-5-propyl-1H-pyrazol-4-yl]propionic acid] | 158 to 159 °C
9 | Cc1oc(-c2ccccc2)nc1COc1ccc(Cn2cc(CC(=O)O)c(-c3ccccc3)n2)cn1 [Example 308, [1-[6-(5-methyl-2-phenyl-4-oxazolylmethoxy)-3-pyridylmethyl]-3-phenyl-1H-pyrazol-4-yl]acetic acid] | 144 to 145 °C
10 | Cc1oc(-c2ccccc2)nc1COc1nn(Cc2ccc(Oc3ccccc3)cc2)cc1/C=C/C(=O)O [Example 333, (E)-3-[3-(5-methyl-2-phenyl-4-oxazolylmethoxy)-1-(4-phenoxybenzyl)-1H-pyrazol-4-yl]propenoic acid] | 210 to 211 °C
11 | O=C(O)CCc1cn(Cc2ccc(OCc3csc(-c4ccccc4)n3)nc2)nc1-c1ccccc1 [Example 300, 3-[3-phenyl-1-[6-(2-phenyl-4-thiazolylmethoxy)-3-pyridylmethyl]-1H-pyrazol-4-yl]propionic acid] | 107 to 108 °C
12 | CCOc1nn(Cc2ccc(OCc3ccc(-c4ccccc4)cn3)cc2)cc1CCC(=O)O [Example 250, 3-[3-ethoxy-1-[4-(5-phenyl-2-pyridylmethoxy)benzyl]-1H-pyrazol-4-yl]propionic acid] | 127 to 128 °C
13 | Cc1sc(-c2ccccc2)nc1COc1ccc(Cn2cc(CC(=O)O)c(-c3ccccc3)n2)cn1 [Example 312, [1-[6-(5-methyl-2-phenyl-4-thiazolylmethoxy)-3-pyridylmethyl]-3-phenyl-1H-pyrazol-4-yl]acetic acid] | 140 to 141 °C
14 | CCOC(=O)c1cn(Cc2ccc(Oc3ccccc3)cc2)nc1OCc1ccc(OCc2nc(-c3ccco3)oc2C)c(OC)c1 [Example 321, ethyl 3-[4-[2-(2-furyl)-5-methyl-4-oxazolylmethoxy]-3-methoxybenzyloxy]-1-(4-phenoxybenzyl)-1H-pyrazole-4-carboxylate] | 98 to 99 °C
15 | O=C(O)CCc1cn(Cc2ccc(OCc3ccc4ccccc4n3)cc2)nc1-c1ccccc1 [Example 285, 3-[3-phenyl-1-[4-(2-quinolylmethoxy)benzyl]-1H-pyrazol-4-yl]propionic acid] | 147 to 148 °C
16 | O=C(O)CCc1cn(Cc2ccc(OCc3cccc(-c4cnccn4)c3)cc2)cc1-c1ccccc1 [Example 36, 3-[4-phenyl-1-[4-[3-(2-pyrazinyl)benzyloxy]benzyl]-3-pyrrolyl]propionic acid] | 91 to 92 °C
17 | COc1cc(Cn2cc(CCC(=O)O)c(-c3ccccc3)c2)cc(OCc2csc(-c3cnccn3)n2)c1 [Example 71, 3-[1-[3-methoxy-5-[2-(2-pyrazinyl)-4-thiazolylmethoxy]benzyl]-4-phenyl-3-pyrrolyl]propionic acid] | 111 to 112 °C
18 | O=C(O)c1cn(Cc2ccc(OCc3csc(-c4ccccc4)n3)cc2)nc1-c1ccccc1 [Example 94, 3-phenyl-1-[4-(2-phenyl-4-thiazolylmethoxy)benzyl]-1H-pyrazol-4-carboxylic acid] | 119 to 120 °C
19 | O=C(O)CCc1cn(Cc2ccc(OCc3ccc(-c4ccccc4)nc3)cc2)nc1-c1ccccc1 [Example 288, 3-[3-phenyl-1-[4-(6-phenyl-3-pyridylmethoxy)benzyl]-1H-pyrazol-4-yl]propionic acid] | 155 to 156 °C
20 | Cc1oc(-c2ccccc2)nc1CCOc1ccc(Cn2cc(CCC(=O)O)c(-c3ccccc3)n2)cc1 [Example 114, 3-[1-[4-[2-(5-methyl-2-phenyl-4-oxazolyl)ethoxy]benzyl]-3-phenyl-1H-pyrazol-4-yl]propionic acid] | 142 to 143 °C
21 | CCOC(=O)/C=C/c1cn(Cc2ccc(Oc3ccccc3)cc2)nc1OCc1nc(-c2ccccc2)oc1C [Example 332, ethyl(E)-3-[3-(5-methyl-2-phenyl-4-oxazolylmethoxy)-1-(4-phenoxybenzyl)-1H-pyrazol-4-yl]propenoate] | 93 to 94 °C
22 | O=C(O)CCc1cn(Cc2ccc(OCc3ccc(-c4ccccc4)nc3)cc2)cc1-c1ccccc1 [Example 277, 3-[4-phenyl-1-[4-(6-phenyl-3-pyridylmethoxy)benzyl]-3-pyrrolyl]propionic acid] | 185 to 186 °C
23 | Cc1oc(-c2ccccc2)nc1COc1ccc(Cn2cc(C(=O)O)c(C(C)C)n2)cc1 [Example 106, 3-isopropyl-1-[4-(5-methyl-2-phenyl-4-oxazolylmethoxy)benzyl]-1H-pyrazol-4-carboxylic acid] | 194 to 195 °C
